Reference: US20080187492A1, “Drosophila Models For Diseases Affecting Learning and Memory” (priority 2004, published 2008)

Experiments:
Type in all cases: in vivo, Drosophila melanogaster
[1] = tested on: Rescue (dFMR1-3+wild type rescue fragment) flies; experiment: Naive courtship behavior (courtship index toward virgin female), Rescue flies; settings: for naive courtship: 5 day old
Excerpt: (§1) Learning and memory (cognitive abilities) can be examined in Drosophila by utilizing several available learning and memory paradigms. The most popular is a classical conditioning paradigm in which the flies learn to associate electric shocks with olfactory cues (Dudia et al, 1976; Davis, 1993; Tully, 1994). An alternative paradigm to study learning and memory in Drosophila is called conditioned courtship, wherein a male fly learns to modify his courtship behavior after experience with an unreceptive female; it is a multi-sensory paradigm involving associations from more then one sensory input (Siegel and Hall, 1979; for review see Hall, 1994). It is a more complex associative learning paradigm and was utilized to assay learning and memory in this article to elucidate the role of dFMR1 in learning and memory (Tompkins et al, 1980; Tompkins et al, 1982; Tompkins et al, 1983; Tompkins et al, 1984; Ackerman and Siegel, 1986). Courting male flies perform a characteristic sequence of behaviors: orienting toward and following the female, tapping her with his forelegs, vibrating one or both wings, licking her genitalia, and attempting copulation (Sturtevant, 1915; Bastock and Manning, 1955; Bastock, 1956). These behaviors are repeated with some variation until successful copulation occurs. Virgin females will generally respond by mating; however, recently mated females will be unreceptive and will not allow copulation to occur (Spieth, 1974), they display different behaviors (Bastock and Manning, 1955; Connolly and Cook, 1973) and have an altered, although somewhat overlapping, pheromonal profile (Cobb and Ferveur, 1996). The naive male will find a previously mated female to have a pheromonal repertoire that is less provocative then that of a virgin female target. A naive male paired with a mated female will initially court her, but his courtship activity soon decreases; after 1 hour of experience with the mated female, his courtship when subsequently paired with a virgin female remains depressed for 2-3 hours (Siegel and Hall, 1979). This effect is not a general suppression of all courtship activity since a male's tendency to court an immature male is not suppressed (Gailey et al, 1984). […] These behaviors are quantified as a courtship index (CI) which is defined as the percentage of time a male fly spends performing any of the six courtship steps toward a target female in a ten minute test period. A decrease in CI after training with a previously mated female is indicative of behavioral plasticity in the form of learning or memory.
(§2) Since we use female targets that are not etherized (therefore they are freely moving), and the w118 and dfmr1-3 flies may have slightly impaired visual acuity due to lack of eye pigmentation, and since visual inputs affect courtship behavior, all subsequent experiments were done utilizing only the genotypes Rescue: dfmr1-3+wild type rescue fragment, and FS: dfmr1-3+frame shifted rescue fragment. Both of these genotypes have more pigmentation and similar levels of eye pigmentation to each other. For FIGS. 4 and 5, a high concentration of MPEP (1,000 μg/ml) was used. For the remainder of the experiments the food was either control (CT) or exactly the same control food containing the appropriate concentration of MPEP (M). The position of the CT and the M are indicative of the point at which the group was on the particular food. The first letter indicates the food type that the larvae grew up on, and the second letter denotes the food type that the adult flies were placed on within four hours of eclosion, and for the four following days, until the day before testing when they were placed on fresh food.
In order to determine if MPEP can get into the Drosophila central nervous system (CNS) through feeding behavior, we mixed MPEP into the food at a concentration of 1,000 μg/ml ([…]). Males were raised on CT food and then placed on either CT or M food. […]

Rescue flies = experiment: Short-term memory (60 mins) with mated female targets, Rescue flies
Description: (§3) Effects of drug treatment on short-term memory (60 mins) in flies lacking dfmr1 activity with mated female targets. Short-term (60 min.) memory was measured in Rescue and FS flies that were either fed control food or underwent various drug treatments as described below. Short-term memory was measured by placing a trained male in a holding chamber for 60 minutes (after being trained for one hour with a previously mated female), then subsequently placing him in a testing chamber with a mated female target for a ten-minute courtship interval (C.I.). This C.I. was compared to the C.I. obtained for naïve courtship of a previously mated female, i.e., C.I. during the first 10 minutes of the training session with a previously mated female. Additionally, for reference the C.I. during the last 10 minutes of the training period was also determined. Numbers of flies are indicated above each bar for all groups. The levels of significance are indicated as follows; *=p<0.05; **=p<0.005; ***=p<0.0001.
(§4) Restoration of short-term memory with mGluR antagonists. To establish that the failure to observe memory was not due to a problem with recognizing or processing the appropriate cues from the virgin female target, we used a modified version of the conditioned courtship paradigm where the male is paired with a mated female target subsequent to training (Kane et al., 1997; Joiner and Griffith, 1997; Joiner and Griffith, 1999; Kamashev et al., 1999). Again, with pharmacologic treatment it is necessary to utilize more then one compound to confirm the specificity of the target, so in this case we used four mGluR antagonists. […] It is also important to note that the robust deficit in synaptic plasticity in FS flies, with regard to memory, is a critical extension of the previous models of Fragile X syndrome in model organisms, since this is one of the most prominent aspects of the human disorder. Furthermore, we have shown that antagonism of the mGluRs can restore synaptic plasticity in the Drosophila model of Fragile X syndrome.

[2] = tested on: FS flies lacking dfmr1 activity; experiment: Short-term memory (60 mins) with mated female targets, FS flies
Description: as §3, §4

[3] = tested on: FS (dFMR1-3+frame shifted rescue fragment) flies; experiment: Conditioned courtship: short-term memory at 60 minutes, virgin female target, FS flies
Description: (§5) Short-term memory. The model was further extended to encompass short-term memory at 60 minutes after training. After the one hour training session with a previously mated female, the female is removed and the male is placed in a holding chamber for 60 minutes, then subsequently placed in a testing chamber with a virgin female target to assess short-term memory (FIG. 4C). […] CT-CT FS flies court just as vigorously at 60 minutes after training as naive CT-CT FS flies. […] The FS groups that were treated with MPEP in development alone, adulthood alone or in both development and adulthood display experience dependent reduction of courtship activity at 60 minutes after training when compared to group matched naives M-M FS, p<0.0001, CT-M FS, p<0.0001 and M-CT FS, p<0.0001. […] Additionally, flies were tested for ability to discriminate between virgin and previously mated females (FIG. 4D).
(§6) In order to examine short-term memory at 60 minutes after training, after the one hour training session with a previously mated female, the female is removed and the male is placed in a holding chamber for 60 minutes, then subsequently placed in a testing chamber with a virgin female (FIG. 9B). […] CT-CT FS flies court just as vigorously at 60 minutes after training as naive CT-CT FS flies. […] The FS groups that were treated with MPEP in development alone, adulthood alone or in both development and adulthood display experience dependent reduction of courtship activity at 60 minutes after training when compared to group matched naives M-M FS.

[4] = tested on: FS (dFMR1-3+frame shifted rescue fragment) flies; experiment: Naive courtship behavior (courtship index toward virgin female), FS flies
Excerpt: as §1
as §2, with “and for the four following days, until the day before testing when they were placed on” left out
Naive males were placed in the training chamber for one hour with no female, and then placed with a virgin target female for a ten-minute interval. The naive courtship behavior was reduced by high MPEP concentration in Rescue (p<0.0001) and FS (p<0.0005) lines, and it was depressed to similar levels by high MPEP treatment in the Rescue and FS groups (FIG. 2A). […]

[5] = tested on: Rescue (dFMR1-3+wild type rescue fragment) flies; experiment: Conditioned courtship: short-term memory at 60 minutes, virgin female target, Rescue flies; settings: 5 day old; MPEP (20 μg/ml), NaCl (5 and 50 mM), LY341495 (400 nM)
Description: as §5, §6

[6] = 86 μM MPEP, 400 nM LY341495, 573 μM MPPG, 348 μM MTPG
[7] = 5 day old, 8.6 mM MPEP, 400 nM LY341495

CC(N)(C(=O)O)c1ccc(P(=O)(O)O)cc1 (racemic) [MPPG, (RS)-alpha-methyl-4-phosphoonophenylglycine]
naive courtship activity ([1]; 5 day old adults, 573 mM MPPG or 348 μM MTPG, p<0.0001 for both): significant decrease in courtship activity
short-term memory, mated female target (Rescue flies; [6]): demonstrated intact short-term memory
memory at 60 minutes post training, mated female target (Rescue flies; [7]): demonstrate memory at 60 minutes post training
short-term memory, mated female target [2, 6]: demonstrated restoration of short-term memory
memory at 60 minutes post training, mated female target [2, 7]: demonstrate memory at 60 minutes post training
short-term memory ([3]; 20-day-old, concentration not given): rescue short-term memory
naive courtship activity ([4]; 5 day old adults, 573 mM MPPG (p<0.0001) or 348 μM MTPG (p<0.005)): significant increase in courtship activity

[Cl-].[Na+] [NaCl]
naive courtship ([1]; LiCl 5 mM, NaCl 5 mM in food): did not suppress naive courtship
naive courtship ([1]; LiCl 50 mM, NaCl 50 mM in food): suppressed naive courtship
short term memory [5]: did not affect short term memory
short term memory ([3]; 5 day old, NaCl (5 and 50 mM)): had no effect
naive courtship ([4]; 5 day old, NaCl at 5 or 50 mM in food): did not restore naive courtship
